The subject of assay [1] is Staphylococcus aureus. In words: Antimicrobial activity against Staphylococcus aureus USA300 isolate harboring pSK41 plasmid expressing ermC gene assessed resistant isolates. The assay is classed as functional.
Assay [2] has as its system Staphylococcus aureus. In words: Antimicrobial activity against Staphylococcus aureus USA300 isolate harboring pSK41 plasmid assessed resistant isolates. The assay is classed as functional.
The test system of assay [3] is Staphylococcus aureus. Nature of the assay: Antimicrobial activity against Staphylococcus aureus USA300 isolate harboring pSK41 plasmid expressing tetK gene assessed resistant isolates. The class given is functional.
The subject of assay [4] is Staphylococcus aureus. In words: Antimicrobial activity against Staphylococcus aureus USA300 isolate harboring pSK41 plasmid expressing aac'-aph'''' gene assessed resistant isolates. The class given is functional, organism-based.

Turning to `CCC[C@@H]1C[C@@H](C(=O)N[C@@H]([C@H]2O[C@H](SC)[C@H](O)[C@@H](O)[C@H]2O)[C@H](C)Cl)N(C)C1` [CLINDAMYCIN], the Activity in assay [1] is given as 6.2%.
In the case of `CC[C@H]1OC(=O)[C@H](C)[C@@H](O[C@H]2C[C@@](C)(OC)[C@@H](O)[C@H](C)O2)[C@H](C)[C@@H](O[C@@H]2O[C@H](C)C[C@H](N(C)C)[C@H]2O)[C@](C)(O)C[C@@H](C)C(=O)[C@H](C)[C@@H](O)[C@]1(C)O` [ERYTHROMYCIN], the Activity in assay [2] is reported as 85%.
`C[C@H]1COc2c(N3CCN(C)CC3)c(F)cc3c(=O)c(C(=O)O)cn1c23.C[C@H]1COc2c(N3CCN(C)CC3)c(F)cc3c(=O)c(C(=O)O)cn1c23.O` [LEVOFLOXACIN] displayed an Activity in assay [2] of 45%.
In assay [2], `Cc1onc(-c2ccccc2)c1C(=O)N[C@@H]1C(=O)N2[C@@H]1SC(C)(C)[C@@H]2C(=O)O` [OXACILLIN] registered an Activity of 100%.
On to `CC1(C)S[C@@H]2[C@H](NC(=O)Cc3ccccc3)C(=O)N2[C@H]1C(=O)O` [PENICILLIN G], for which, in assay [2], the Activity was determined as 100%.
`CN(C)[C@@H]1C(O)=C(C(N)=O)C(=O)[C@@]2(O)C(O)=C3C(=O)c4c(O)cccc4[C@@](C)(O)[C@H]3C[C@@H]12` [TETRACYCLINE]: in assay [3], the Activity was 8.4%.
In the case of GENTAMICIN, in assay [4], the Activity came to 1%.
